Results reported in patent US7196105B2, “Treatment of human multiple myeloma by curcumin” (Research Development Foundation, priority 2002, dated 2007).

What was measured:
IκBα = experiment: Western blot for NF-κB-regulated gene product IκBα in U266 cells; assay type: cell-based, human; conditions: curcumin 50 μM, time course
Procedure: (§1) Sixty micrograms of cytoplasmic extracts were resolved on 10% SDS-PAGE gel, electrotransferred on a nitrocellulose membrane, and probed for the following: IκBα (FIG. 4A); Bcl-2 (FIG. 4B); Bcl-xL (FIG. 4C) and cyclin D1 (FIG. 4D). The same blots were stripped and reprobed with anti-β-actin antibody to show equal protein loading (lower panel in each figure). FIG. 4E: […] U266, MM.1 or RPMI 8226 cells (1×10^7) were treated with curcumin ([…]) in 5 ml of medium for the indicated times. Supernatants were harvested and concentrated approximately 20×, and IL-6 was quantitated by an IL-6 ELISA kit. Values shown were normalized to 1 ml of un-concentrated supernatants. Thirty to fifty micrograms of cytoplasmic protein extracts prepared as described (Chaturvedi et al., 2000) were resolved on 10% SDS-PAGE gel. After electrophoresis, the proteins were electrotransferred to a nitrocellulose membrane, blocked with 5% nonfat milk, and probed with antibodies against either IkBa, phospho-IkBa, Bcl-2, Bcl-xL, or cyclin D1 (1:3000) for 1 h. Thereafter, the blot was washed, exposed to HRP-conjugated secondary antibodies for 1 h, and finally detected by chemiluminescence (ECL, Amersham Pharmacia Biotech., Arlington Heights, Ill.).

cyclin D1 = experiment: Western blot for NF-κB-regulated gene product cyclin D1 in U266 cells; assay type: cell-based, human; conditions: curcumin 50 μM
Procedure: as §1

MM.1R = experiment: Growth of cells, viable cell count by trypan blue dye exclusion; assay type: cell-based; conditions: Homo sapiens, curcumin 1 μM
Text: (§2) The results are shown as the mean (±s. d.) cell count from triplicate cultures.

MM.1 = experiment: as above; assay type: cell-based; conditions: Homo sapiens, Mm1; MM.1, curcumin 1 μM
Text: as §2

RPMI 8226 = experiment: as above; assay type: cell-based; conditions: Homo sapiens; RPMI 8226, curcumin 1 μM
Text: as §2

U266 = experiment: as above; assay type: cell-based; conditions: Homo sapiens, U-266; U266, curcumin 1 μM
Text: as §2

NF-κB = experiment: Electrophoretic mobility shift assay (EMSA) for nuclear NF-κB in multiple myeloma cell lines; assay type: cell-based, human; conditions: for time of complete downregulation of NF-κB: 50 μM curcumin
Procedure: FIG. 1A: Dose response of NF-κB to curcumin treatment of U266 cells. […] FIG. 1B: Effect of exposure duration on curcumin-induced NF-κB suppression in U266 cells. […] FIG. 1C: Effect of exposure duration on curcumin-induced NF-κB suppression in MM.1 cells. Cells were treated as described in FIG. 1B. FIG. 1D: Effect of exposure duration on curcumin-induced NF-κB suppression in MM.1R cells. Cells were treated as described in FIG. 1B. FIG. 1E: Effect of exposure duration on curcumin-induced NF-κB suppression in RPMI 8226. Cells were treated as described in FIG. 1B. FIG. 1F: […] Nuclear extracts were prepared from U266 cells (2×10^6/ml), incubated for 30 min with different antibodies or unlabeled NF-κB oligonucleotide probe, and then assayed for NF-κB by EMSA. […] U266 cells (2×10^6 cells/ml) were treated with indicated concentrations of NEMO-control or NBD-peptide (100 μM) for the indicated times. Nuclear extracts were then checked for the presence of NF-κB DNA-binding activity by EMSA. […] Untreated or NBD-peptide-treated (100 μM; 12 h) U266 cells were cytospun, and p65 immunocytochemistry was performed as described. Red stain indicates the localization of p65 and blue stain indicates nucleus (magnification 200×). […] U266 cells (2×10^6 cells/ml) were treated with indicated concentrations of NEMO-control or NBD-peptide (100 μM) for the indicated time periods, and cell viability was monitored by the trypan blue dye exclusion method. Percent cell killing was determined as: (number of trypan blue stained cells/total cells)×100. Nuclear extracts were prepared according to Bharti et al. (2003). Briefly, 2×10^6 cells were washed with cold PBS and suspended in 0.4 ml of hypotonic lysis buffer containing protease inhibitors for 30 min. The cells were then lysed with 12.5 μl of 10% Nonidet P-40. […] The nuclear pellet was resuspended in 25-μl ice-cold nuclear extraction buffer. After 30 min of intermittent mixing, the extract was centrifuged, and supernatants containing nuclear extracts were collected. Protein content was measured by the Bradford method. […] NF-kB activation was analyzed by electrophoretic mobility gel shift assay (EMSA) as described previously (Chaturvedi et al., 1994). […] Radioactive bands from the dried gels were visualized and quantitated by Phosphorlmager (Molecular Dynamics, Sunnyvale, Calif.) using ImageQuant software.

p65 subunit of NF-κB = experiment: Immunocytochemistry for NF-κB p65 localization in multiple myeloma cell lines; assay type: cell-based, human; conditions: all four multiple myeloma cell lines, curcumin 50 μM, 4 hours
Procedure: Red stain indicates the localization of p65 and blue stain (Hoechst) indicates nucleus (magnification 200×). […] U266 cells (2×10^6 cells/ml) were treated with indicated concentrations of NEMO-control or NBD-peptide (100 μM) for the indicated times. Nuclear extracts were then checked for the presence of NF-κB DNA-binding activity by EMSA. […] Untreated or NBD-peptide-treated (100 μM; 12 h) U266 cells were cytospun, and p65 immunocytochemistry was performed as described. Red stain indicates the localization of p65 and blue stain indicates nucleus (magnification 200×). […] U266 cells (2×10^6 cells/ml) were treated with indicated concentrations of NEMO-control or NBD-peptide (100 μM) for the indicated time periods, and cell viability was monitored by the trypan blue dye exclusion method. Percent cell killing was determined as: (number of trypan blue stained cells/total cells)×100. […] Stained slides were mounted with mounting medium (Sigma Colo.) and analyzed under an epifluorescence microscope (Labophot-2, Nikon, Tokyo, Japan). […] Cells with nuclear staining of NF-κB p65 or STAT3 were counted separately. One hundred cells were counted for each specimen, and the sample was graded on the basis of a 4-point scale: −, no nuclear positive cells (0%); +, low number of nuclear positive cells (<10%); ++, moderate number of nuclear positive cells (10–50%); +++, high number of nuclear positive cells (>50%).

## COc1cc(/C=C/C(=O)CC(=O)/C=C/c2ccc(O)c(OC)c2)ccc1O [curcumin, diferuloylmethane]
IκBα
  IκBα protein level: only a partial decline
Cyclin D1
  time to complete depletion of cyclin D1: ≤ 4 h
MM.1R
  inhibition at 1 µM: 51%
MM.1
  inhibition at 1 µM: 45%
RPMI 8226
  inhibition at 1 µM: 23%
U266
  inhibition at 1 µM: 27%
NF-κB; MM.1 cells
  time of complete downregulation of NF-κB: 4 h
NF-κB; MM.1R cells
  time of complete downregulation of NF-κB: 4 h
NF-κB; U266 cells
  time of complete downregulation of NF-κB: 4 h
NF-κB; U266 cells, 4 h, EMSA
  concentration sufficient to fully suppress constitutive NF-κB activation: 50 µM
p65 subunit of NF-κB
  nuclear translocation of p65: prevented the translocation of the p65 subunit of NF-κB to the nucleus
